Data on 19 compounds can be found in ChEMBL document CHEMBL3769337, “Inspired by magnolol: design of NSAID-based compounds with excellent anti-inflammatory effects” (2015).

The source made the active and inactive calls. The rule behind the calls is not given here.

For assay [1], the system named is Mus musculus. The assay is described as follows: Antiinflammatory activity in TPA induced BALB/c mouse ear edema model assessed as decrease in weight of ear punches at 0.75 uM administered topically for 6 mins prior to TPA challenge measured after 6 hrs relative to control. It is filed as functional. On the set-up: scale not given: the % may be the effect or the level left.

Assay [2] relates to Mus musculus. The assay is described as follows: In vivo inhibition of TPA induced IKK activity in TPA induced BALB/c mouse ear edema model administered topically for 6 mins prior to TPA challenge measured after 6 hrs by immunohistochemical analysis. It is filed as functional, organism-based.
In assay [3] the test system is Mus musculus. The assay is described as follows: Decrease in TPA induced TNF-alpha levels in TPA induced BALB/c mouse ear edema model administered topically for 6 mins prior to TPA challenge measured after 6 hrs by immunohistochemical analysis. The assay is classed as functional, organism-based.
Assay [4] has as its system Mus musculus. The assay is described as follows: In vivo inhibition of TPA induced p65 translocation form cytoplasm to nucleus in TPA induced BALB/c mouse ear edema model administered topically for 6 mins prior to TPA challenge measured after 6 hrs by immunohistochemical analysis. It is filed as functional, organism-based.
The test system of assay [5] is Mus musculus. The assay is described as follows: Antiinflammatory activity in TPA induced BALB/c mouse ear edema model assessed as morphological alterations administered topically for 6 mins prior to TPA challenge measured after 6 hrs by Hematoxylin and Eosin staining based microscopy. It is filed as functional, organism-based.
Assay [6] deals with Mus musculus. The assay is described as follows: Antiinflammatory activity in TPA induced BALB/c mouse ear edema model assessed as decrease in inflammatory cell infiltration level administered topically for 6 mins prior to TPA challenge measured after 6 hrs by Hematoxylin and Eosin staining based microscopy. The assay is classed as functional, organism-based.
The test system of assay [7] is Mus musculus. The assay is described as follows: Decrease in TPA induced IL-1beta levels in TPA induced BALB/c mouse ear edema model administered topically for 6 mins prior to TPA challenge measured after 6 hrs by immunohistochemical analysis. The assay is classed as functional, organism-based.
The test system of assay [8] is Mus musculus. The assay is described as follows: Decrease in TPA induced IL6 levels in TPA induced BALB/c mouse ear edema model administered topically for 6 mins prior to TPA challenge measured after 6 hrs by immunohistochemical analysis. It is filed as functional, organism-based.
The test system of assay [9] is Mus musculus. The assay is described as follows: In vivo inhibition of TPA induced I-kappa-B-alpha phosphorylation in TPA induced BALB/c mouse ear edema model administered topically for 6 mins prior to TPA challenge measured after 6 hrs by immunohistochemical analysis. It is filed as functional, organism-based.
Assay [10] deals with Mus musculus. The assay is described as follows: Decrease in nuclear level of phosphorylated p65 in TPA induced BALB/c mouse ear edema model administered topically for 6 mins prior to TPA challenge measured after 6 hrs by immunohistochemical analysis. The assay is classed as functional, organism-based.
In assay [11] the test system is Mus musculus. The assay is described as follows: In vivo inhibition of TPA induced NF-kappa-B transcriptional activity in TPA induced BALB/c mouse ear edema model administered topically for 6 mins prior to TPA challenge measured after 6 hrs by immunohistochemical analysis. It is filed as functional, organism-based.
The test system of assay [12] is Mus musculus. The assay is described as follows: Antiinflammatory activity in TPA induced BALB/c mouse ear edema model assessed as decrease in weight of ear punches administered topically for 6 mins prior to TPA challenge measured after 6 hrs relative to control. It is filed as functional. The arrangement: concentration or dose not given beside the values; scale not given: the % may be the effect or the level left.

The subject of assay [13] is Mus musculus. The assay is described as follows: Antiinflammatory activity in TPA induced BALB/c mouse ear edema model assessed as decrease in weight of ear punches at 3 uM administered topically for 6 mins prior to TPA challenge measured after 6 hrs relative to control. It is filed as functional. On the set-up: scale not given: the % may be the effect or the level left.

The test system of assay [14] is Mus musculus. The assay is described as follows: Antiinflammatory activity in TPA induced BALB/c mouse ear edema model assessed as decrease in weight of ear punches at 0.1 uM administered topically for 6 mins prior to TPA challenge measured after 6 hrs relative to control. The assay is classed as functional. The arrangement: scale not given: the % may be the effect or the level left.

Assay [15] concerns Mus musculus. The assay is described as follows: Antiinflammatory activity in TPA induced BALB/c mouse ear edema model assessed as decrease in weight of ear punches compound co-treated with ketoprofen at 1:1 compound to ketoprofen ratio administered topically for 6 mins prior to TPA challenge measured after 6 hrs relative to control. It is filed as functional. The arrangement: scale not given: the % may be the effect or the level left.

The test system of assay [16] is Mus musculus. The assay is described as follows: Antiinflammatory activity in TPA induced BALB/c mouse ear edema model assessed as decrease in weight of ear punches compound co-treated with flufenamic acid at 1:2 compound to flufenamic acid ratio administered topically for 6 mins prior to TPA challenge measured after 6 hrs relative to control. It is filed as functional. The arrangement: scale not given: the % may be the effect or the level left.

The test system of assay [17] is Mus musculus. The assay is described as follows: Antiinflammatory activity in TPA induced BALB/c mouse ear edema model assessed as decrease in weight of ear punches at 1.5 uM administered topically for 6 mins prior to TPA challenge measured after 6 hrs relative to control. The assay is classed as functional. The arrangement: scale not given: the % may be the effect or the level left.

For assay [18], the system named is Mus musculus. The assay is described as follows: Antiinflammatory activity in TPA induced BALB/c mouse ear edema model assessed as decrease in weight of ear punches compound co-treated with diclofenac at 1:1 compound to diclofenac ratio administered topically for 6 mins prior to TPA challenge measured after 6 hrs relative to control. It is filed as functional. On the set-up: scale not given: the % may be the effect or the level left.

Assay [19] deals with Mus musculus. The assay is described as follows: Antiinflammatory activity in TPA induced BALB/c mouse ear edema model assessed as decrease in weight of ear punches compound co-treated with flufenamic acid at 1:1 compound to flufenamic acid ratio administered topically for 6 mins prior to TPA challenge measured after 6 hrs relative to control. It is filed as functional. On the set-up: scale not given: the % may be the effect or the level left.

The test system of assay [20] is Mus musculus. The assay is described as follows: Antiinflammatory activity in TPA induced BALB/c mouse ear edema model assessed as decrease in weight of ear punches compound co-treated with naproxen at 1:2 compound to naproxen ratio administered topically for 6 mins prior to TPA challenge measured after 6 hrs relative to control. On the set-up: scale not given: the % may be the effect or the level left. It is filed as functional.

Assay [21] relates to Mus musculus. The assay is described as follows: Antiinflammatory activity in TPA induced BALB/c mouse ear edema model assessed as decrease in inflammatory cell infiltration level compound cotreated with ketoprofen at 1:1 compound to ketoprofen ratio administered topically for 6 mins prior to TPA challenge measured after 6 hrs by Hematoxylin and Eosin staining based microscopy. It is filed as functional, organism-based.

Assay [22] concerns Mus musculus. The assay is described as follows: Antiinflammatory activity in TPA induced BALB/c mouse ear edema model assessed as decrease in weight of ear punches at 0.325 uM administered topically for 6 mins prior to TPA challenge measured after 6 hrs relative to control. On the set-up: scale not given: the % may be the effect or the level left. It is filed as functional.

Assay [23] relates to Mus musculus. The assay is described as follows: Antiinflammatory activity in TPA induced BALB/c mouse ear edema model assessed as decrease in weight of ear punches compound co-treated with naproxen at 1:1 compound to naproxen ratio administered topically for 6 mins prior to TPA challenge measured after 6 hrs relative to control. The arrangement: scale not given: the % may be the effect or the level left. The assay is classed as functional.

For assay [24], the system named is Mus musculus. The assay is described as follows: Antiinflammatory activity in TPA induced BALB/c mouse ear edema model assessed as decrease in weight of ear punches compound co-treated with ketoprofen at 1:2 compound to ketoprofen ratio administered topically for 6 mins prior to TPA challenge measured after 6 hrs relative to control. It is filed as functional. On the set-up: scale not given: the % may be the effect or the level left.

Assay [25] relates to Mus musculus. The assay is described as follows: Antiinflammatory activity in TPA induced BALB/c mouse ear edema model assessed as decrease in weight of ear punches compound co-treated with diflunisal at 1:1 compound to diflunisal ratio administered topically for 6 mins prior to TPA challenge measured after 6 hrs relative to control. The arrangement: scale not given: the % may be the effect or the level left. It is filed as functional.

`C=CCc1ccc(OC(=O)c2ccccc2Nc2cccc(C(F)(F)F)c2)c(-c2cc(CC=C)ccc2OC(=O)c2ccccc2Nc2cccc(C(F)(F)F)c2)c1`: the Activity entry with Mus musculus [1] is given as “<=90%”.
`C=CCc1ccc(O)c(-c2cc(CC=C)ccc2OC(=O)c2cc(-c3ccc(F)cc3F)ccc2O)c1`: the Activity result with Mus musculus [1] is recorded as “<=90%”.
The same measure, in the same setting: the result for `C=CCc1ccc(OC(=O)C(C)c2cccc(C(=O)c3ccccc3)c2)c(-c2cc(CC=C)ccc2OC(=O)C(C)c2cccc(C(=O)c3ccccc3)c2)c1` (stereo unspecified) reads “<=90%”; that for `C=CCc1ccc(O)c(-c2cc(CC=C)ccc2OC(=O)c2ccccc2Nc2cccc(C(F)(F)F)c2)c1`, “<=90%”.
`C=CCc1ccc(O)c(-c2cc(CC=C)ccc2OC(=O)C(C)c2cccc(C(=O)c3ccccc3)c2)c1` (stereo unspecified): the inhibition result in the assay on Mus musculus [2], in the assay on Mus musculus [4], with Mus musculus [9] and in the assay on Mus musculus [11] was “Active” throughout. The result in the assay with Mus musculus [3], with Mus musculus [5], in the assay on Mus musculus [6], in the assay with Mus musculus [7], in the assay on Mus musculus [8] and with Mus musculus [10] was Active. The Activity entry with Mus musculus [1] is reported as “<=90%”.
With `C=CCc1ccc(OC(=O)[C@@H](C)c2ccc3cc(OC)ccc3c2)c(-c2cc(CC=C)ccc2OC(=O)[C@@H](C)c2ccc3cc(OC)ccc3c2)c1`, the Activity result with Mus musculus [1] is reported as “<=90%”.
With `C=CCc1ccc(O)c(-c2cc(CC=C)ccc2OC(=O)[C@@H](C)c2ccc3cc(OC)ccc3c2)c1`, the Activity result with Mus musculus [1] is “<=90%”.
On the same count and under the same terms, then `C=CCc1ccc(O)c(-c2cc(CC=C)ccc2OC(=O)Cc2ccccc2Nc2c(Cl)cccc2Cl)c1`, with “<=90%”.
Still for that read-out and setting: the result for `C=CCc1ccc(OC(=O)CC2(CC)OCCc3c2[nH]c2c(CC)cccc32)c(-c2cc(CC=C)ccc2OC(=O)CC2(CC)OCCc3c2[nH]c2c(CC)cccc32)c1` (stereo unspecified) reads “inactive”; that for `C=CCc1ccc(OC(=O)Cc2ccccc2Nc2c(Cl)cccc2Cl)c(-c2cc(CC=C)ccc2OC(=O)Cc2ccccc2Nc2c(Cl)cccc2Cl)c1`, “inactive”.
In the case of `C=CCc1ccc(OC(=O)c2cc(-c3ccc(F)cc3F)ccc2O)c(-c2cc(CC=C)ccc2OC(=O)c2cc(-c3ccc(F)cc3F)ccc2O)c1`, in the assay on Mus musculus [1], the result was inactive.
For the compound `C=CCc1ccc(OC(=O)c2ccccc2Nc2cccc(C)c2C)c(-c2cc(CC=C)ccc2OC(=O)c2ccccc2Nc2cccc(C)c2C)c1`, the outcome in the assay with Mus musculus [1] was inactive.
On the same count and under the same terms, then `C=CCc1ccc(OC(=O)c2ccccc2O)c(-c2cc(CC=C)ccc2OC(=O)c2ccccc2O)c1`, with “inactive”.
Take `O=C(O)Cc1ccccc1Nc1c(Cl)cccc1Cl` [DICLOFENAC]: the Activity in the assay on Mus musculus [12] is reported as 78.3%.
The same measure, in the same setting: then `O=C(O)c1cc(-c2ccc(F)cc2F)ccc1O` [DIFLUNISAL], with 80.5%; and `O=C(O)c1ccccc1Nc1cccc(C(F)(F)F)c1` [FLUFENAMIC ACID], with 75.8%.
In the case of `CC(C(=O)O)c1cccc(C(=O)c2ccccc2)c1` (stereo unspecified) [KETOPROFEN], the result in the assay on Mus musculus [6] was Active. Also, the Activity in the assay with Mus musculus [12] was 10.9%.
For `C=CCc1ccc(O)c(-c2cc(CC=C)ccc2O)c1` [MAGNOLOL], the Activity is 96.7% in the assay with Mus musculus [13]; 8.3% with Mus musculus [14]; 16.6% with Mus musculus [15]; “Dose-dependent effect” in the assay on Mus musculus [12]; 52.2% in the assay with Mus musculus [12] (record 2); 54.2% in the assay with Mus musculus [16]. Also, the Activity with Mus musculus [17] turned out to be 91.7%; in the assay on Mus musculus [18] it was 87.9%; in the assay on Mus musculus [1] it was 58.3%; in the assay on Mus musculus [19], 70.4%; in the assay on Mus musculus [20], 92.8%; with Mus musculus [22], 16.7%. Moreover, the Activity in the assay with Mus musculus [23] was determined as 40.2%; with Mus musculus [24], 72.7%; in the assay on Mus musculus [25], 94.9%. Besides, the outcome with Mus musculus [6] and in the assay on Mus musculus [21] was Active.
For `COc1ccc2cc([C@H](C)C(=O)O)ccc2c1` [NAPROXEN], in the assay with Mus musculus [12], the Activity was 46%.
